One experiment relates to S. aureus ATCC25923. Put plainly: S. aureus MIC80 determination, broth microdilution (CLSI) in CAMHB. It counts as cell-based. Conditions: S. aureus ATCC 25923. The method, then: (§1) S. Aureus MIC80 determinations in S. aureus ATCC25923 or in multidrug-resistant strains AR215, AR217 and AR255. MIC80's were determined by the broth microdilution method recommended by the Clinical and Laboratory Standards Institute (CLSI) in Cation-adjusted Mueller-Hinton broth (CAMHB). (Cao et al., 2018). In the preliminary screening, three compound concentrations were used: 5.8, 20.4, and 71.4 μM; for quantitative MIC80 measurements, a 1.5-fold dilution series of the compounds was prepared in CAMHB. Overnight bacterial culture was added to the diluted compounds in a 96-well plate after adjusting the bacterial concentration to achieve a 5×10^5 CFU/mL final concentration. After 16-24 h incubation at 35±2° C., the plates were read at 600 nm in a microplate reader. The MIC80 was defined as the concentration of an antibacterial agent that inhibited bacteria growth ≥80% compared to vehicle-treated control cultures. All values were determined at least twice independently, and the average number is reported.
In general terms: In broth dilution the organism is exposed to a series of concentrations in liquid medium.

Experiment [1] has as its system S. aureus AR217 (MRSA, multidrug-resistant strain). The experiment is described as above. It counts as cell-based. Conditions: Table 2. The method, then:
as §1
(§2) AR215, AR217, and AR222 were obtained from the Centers for Disease Control and Prevention (CDC). AR215 and AR217 are cefoxitin-screen positive (resistant to cefoxitin) and resistant to oxacillin, which are MRSA strains. AR215 is also resistant to clindamycin, erythromycin, levofloxacin, and penicillin. AR217 is also resistant to levofloxacin, penicillin, and Trimethoprim-sulfamethoxazole. AR222 is only resistant to penicillin.

The subject of experiment [2] is S. aureus AR215 (MRSA, multidrug-resistant strain). The description is as above. It counts as cell-based. Conditions: Table 2. The method, then:
as §1, §2

Experiment [3] deals with S. aureus AR222. The description is as above. Conditions: Table 2. It counts as cell-based. The method, then:
as §1, §2

In the next experiment the test system is S. aureus AR217. More on the design: key to Antibiotic susceptibility (R/S/I): R: resistance; S: sensitive; I: intermediate. The settings on record: Table 2; S. aureus AR217 (CDC strain); cited from earlier work.
For experiment [4], the system named is S. aureus AR222. More on the design: key to Antibiotic susceptibility (R/S/I): R: resistance; S: sensitive; I: intermediate. The settings on record: Table 2; S. aureus AR222 (CDC strain); cited from earlier work.
In another experiment the test system is S. aureus AR215. On the set-up: key to Antibiotic susceptibility (R/S/I): R: resistance; S: sensitive; I: intermediate. Conditions: Table 2; S. aureus AR215 (CDC strain); cited from earlier work.
The test system of a further experiment is S. aureus ATCC 25923. On the set-up: key: R: resistance; S: sensitive; I: intermediate. The settings on record: Table 2; cited from earlier work.
The mark [5] stands for this setting: Staphylococcus aureus, ATCC25923, Table 1, growth inhibition ≥80% vs vehicle, 16-24 h, read-out: ATCC 25923 MIC80.
Setting [6] is: Staphylococcus aureus, ATCC25923, Table 2, read-out: MIC80.

Results on 4 compounds are retold here after US12570647B2 (Saint Louis University, priority 2021, dated 2026).

Values after ≈ are worked out from the molar mass of the structure shown. Like-named read-outs stand apart in the source and are kept apart here. Some results are limits rather than exact numbers.

As usually defined, the MIC80 is the lowest concentration that inhibits either 80% of growth or 80% of the strains tested, depending on the study. For `Cc1ccc(C(=O)N(CCCn2ccnc2)c2nc3c(C)cc(Cl)cc3s2)o1` [Example 4, N-(3-(1H-imidazol-1-yl)propyl)-N-(6-chloro-4-methylbenzo[d]thiazol-2-yl)-5-methylfuran-2-carboxamide], the MIC80 in the experiment on S. aureus ATCC25923 (setting [5]) is 2.6 µM (≈ 1.08 µg/mL); in the experiment on S. aureus ATCC25923 (setting [6]), 0.78 µM (≈ 0.324 µg/mL); in experiment [1] (Staphylococcus aureus, MRSA), 5.9 µM (≈ 2.45 µg/mL); in experiment [2] (Staphylococcus aureus, MRSA), 8.9 µM (≈ 3.69 µg/mL); in the experiment with S. aureus AR222 [3] (Staphylococcus aureus), 0.78 µM (≈ 0.324 µg/mL).

As for `Cc1ccoc1C(=O)N(CCCn1ccnc1)c1nc2c(C)cc(Cl)cc2s1` [Example 15, N-(3-(1H-imidazol-1-yl)propyl)-N-(6-chloro-4-methylbenzo[d]thiazol-2-yl)-3-methylfuran-2-carboxamide], the MIC80 with S. aureus ATCC25923 (setting [5]) was under 1.7 µM; in the experiment with S. aureus ATCC25923 (setting [6]), 1.8 µM (≈ 0.747 µg/mL); in experiment [1] (Staphylococcus aureus, MRSA), 4 µM (≈ 1.66 µg/mL); in experiment [2] (Staphylococcus aureus, MRSA), 13.3 µM (≈ 5.52 µg/mL); in the experiment on S. aureus AR222 [3] (Staphylococcus aureus), 2.6 µM (≈ 1.08 µg/mL).

On to Gentamicin, for which the “Antibiotic susceptibility (R/S/I)” value in the experiment on S. aureus AR217, in the experiment on S. aureus AR222 [4], in the experiment with S. aureus AR215 and in the experiment with S. aureus ATCC 25923 was “S” in each case.

For clorofloxacin [reference compound], the MIC80 in the experiment with S. aureus ATCC25923 (Table 2, read-out: MIC80) was 40.52 µM; in experiment [1] it was “.30 µM”; in experiment [2] it was “.66 µM”; against S. aureus AR222 [3] it was 0.52 µM.
